Columns and labels:
[1] = biological target: T1, cathepsin K (mature, mCatK) (Homo sapiens, UniProt P43235); assay: crystal structure […] Å (also with iCatK, 7QBM); Ki by fluorogenic enzyme assay (Morrison); assay type: biochemical; settings: read-out: mCatK inhibition^a / Ki
T1 construct: gene CTSK; mature CatK, model residues Ala1 to Met215 (from recombinant zymogen expressed in Pichia pastoris)
T1 sequence (P43235 115-329): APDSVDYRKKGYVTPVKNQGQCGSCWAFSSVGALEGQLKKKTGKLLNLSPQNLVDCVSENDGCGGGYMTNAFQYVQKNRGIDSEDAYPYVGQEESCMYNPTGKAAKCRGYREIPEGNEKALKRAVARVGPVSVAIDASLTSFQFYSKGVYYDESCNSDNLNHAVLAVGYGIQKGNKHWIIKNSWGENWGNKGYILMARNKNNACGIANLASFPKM

[2] = biological target: T2, cathepsin K (mature, mCatK) (Homo sapiens, UniProt P43235); assay: crystal structure […] Å (also with iCatK, 7QBO); Ki by slow-binding fluorogenic enzyme assay; assay type: biochemical; settings: read-out: mCatK inhibition^a / Ki
T2 construct: gene CTSK; mature CatK, model residues Ala1 to Met215 plus N-terminal Gly-Arg (98p–99p) (from recombinant zymogen expressed in Pichia pastoris)
T2 sequence (P43235 113-329): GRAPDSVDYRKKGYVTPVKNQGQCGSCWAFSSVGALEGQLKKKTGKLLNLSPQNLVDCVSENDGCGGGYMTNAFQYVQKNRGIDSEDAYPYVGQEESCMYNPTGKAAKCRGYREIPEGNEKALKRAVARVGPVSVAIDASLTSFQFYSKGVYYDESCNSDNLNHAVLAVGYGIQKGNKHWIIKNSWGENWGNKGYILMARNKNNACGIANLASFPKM

Ki [1] [nM]	Ki [2] [nM]	SMILES
0.013	–	CN(Cc1ccccc1)C(=O)CN(C#N)NC(=O)OC(C)(C)C [Gü2602]
–	0.91	CN(C#N)N(C)C(=O)[C@H](Cc1ccccc1)NC(=O)OCc1ccccc1 [Gü1303]
